“And” between values parts separate entries of the source, which are not always exact repeats. Equal entries are not always repeated.

A short description of series [1]: Dissolution of solid L-glucose forms in water with consumer-like stirring. Conditions: for Time of stirring until sample fully dissolved: 53 g in 240 mL doubly distilled water. The class given is physicochemical. As to the method:
Each sample comprises approximately an equivalent amount of L-glucose on a weight basis. Carefully, to avoid agitation and mixing, doubly distilled water (240 mL) is added to each beaker. In one example, the solution is stirred immediately after addition of water. […] The stiffing was conducted in a manner duplicating the way a consumer is expected to stir a sample prior to use.

Series [2] concerns colon. Nature of the series: Open-label, historically controlled, single-dose study of L-glucose as colon-cleansing agent before colonoscopy (Raymer et al.). The class given is in vivo, human. As to conditions: 24-g single dose; equivalent of the 80% success rating. As to the method: For example, an open-label, historically controlled, single-dose study of a 24-g dose of L-glucose was conducted to determine the safety and effectiveness of L-glucose as a colon-cleansing agent before colonoscopy (Raymer et al., “An open-label trial of L-glucose as a colon-cleansing agent before colonoscopy,” Gastrointest Endosc 58(1):30-5, 2003).

The subject of series [3] is colon. Put plainly: Comparative Example 1: multicenter, double-blind, dose-range-finding study of L-glucose as colon-cleansing agent before colonoscopy. The class given is in vivo, human. Conditions: single doses 12 g, 16 g, 20 g, 24 g; scale of Hsu et al. As for the experimental part:
A multicenter, double-blind, dose-range-finding study to evaluate the effectiveness and safety of L-glucose as a colon-cleansing agent before colonoscopy was conducted. Doses used in this study were 12 g, 16 g, 20 g, and 24 g. The assessment of the preparations was based on the scale used in Hsu et al., “Meta-analysis and cost comparison of polyethylene glycol lavage versus sodium phosphate for colonoscopy preparation,” Gastrointestinal Endoscopy 48(3):276-282, 1998, wherein small bits of fecal material in the colon were allowed in an “Excellent” score.

Series [4] has as its system colon. Nature of the series: Comparative Example 2: randomized, single-blind study of L-glucose as bowel preparation before colonoscopy (GPA scale). The class given is in vivo, human. As for the experimental part:
(§1) Global Preparation Assessment
(§2) Excellent=clean colon or small volume of clear liquid
(§3) Good=moderate to large volume of clear to semiclear liquid
(§4) Fair=some semisolid stool suctioned or washed away
(§5) Poor=semisolid or solid stool unable to be suctioned or washed away
A randomized, single-blind study designed to determine the clinical effectiveness of L-glucose as a bowel preparation before colonoscopy was performed. Three dose regimens were evaluated: 24 g in the evening only, 30 g in the evening only, and 24 g in the evening followed by 12 g in the morning (36 g total). Here, Applicant's GPA scale described herein was used to evaluate the preparations. […] Clinical efficacy (defined as a combination of “excellent” and “good” assessments) for the split-dose schedule was 19/27 (70%), as compared to 7/31 (23%) in the single-dose schedule (p<0.001).
As noted above in the description of Applicant's GPA scale, the criteria for determining whether a preparation was deemed “excellent” or “good” was respectively defined as “clean colon or small volume of clear liquid” or “moderate to large volume of clear to semi-clear liquid.” These criteria are more stringent than the rating system used by Raymer et al. discussed supra since Raymer's “excellent” and “good” ratings were respectively defined as “no more than small bits of adherent fecal fluid” and “small amounts of feces or fluid not interfering with the examination.” Thus, Raymer's “excellent” rating would likely not qualify as even a “good” rating in Applicant's GPA scale.

Series [5] concerns colon. Nature of the series: Example 3: open-label, 2-site dose-escalating split-dose study of L-glucose before colonoscopy (GPA and RSS). The class given is in vivo, human.
Excerpt: Applicants have relied upon a combination of a categorical, 4-point scale and a numerical, segmental scoring system to assess bowel cleansing quality (Balaban et al. “Low volume bowel preparation for colonoscopy: randomized, endoscopist-blinded trial of liquid sodium phosphate versus tablet sodium phosphate,” Am J Gastroenterol 98:827-32, 2003). The basic 4-point scale, known as the Global Preparation Assessment (GPA), is essentially the same as the original scale used in the first randomized controlled trial of PHOSPHO-SODA™ as a bowel cleansing agent published in 1990 by Vanner, et al. (“A randomized prospective trial comparing oral sodium phosphate with standard polyethylene glycol-based lavage solution (Golytely) in the preparation of patients for colonoscopy,” Am J Gastroenterol 85:422-7, 1990). The numerical scoring system, known as the Residual Stool Score (RSS), is a continuously variable, averaged segmental scoring instrument that assesses both the amount and consistency of residual stool before suctioning (a measure of the cathartic activity of the bowel cleansing regimen) as well as the percent of the bowel wall seen after washing and cleansing (a measure of the ultimate endpoint for bowel preparation success). The two scales are shown below.
as §1, §2, §3, §4, §5
This open-label, 2-site study employed a dose-escalating design using 3 split doses of L-glucose (24 g/24 g, 36 g/36 g, and 48 g/48 g). The doses were administered the night before and the morning of a scheduled colonoscopy. The study was conducted in Phase I facilities to control for administration of L-glucose and adherence to the dietary and hydration regimen.
Three dose cohorts of 24 subjects were evenly divided between males and females for each cohort. Subjects who were scheduled to undergo an elective colonoscopy, who met the study entrance criteria, and who gave their consent to participate in the study were enrolled. […] Each subject observed a strict diet and hydration regimen as part of the study medication administration.
The site pharmacist prepared the L-glucose preparation based on the study medication preparation manual provided. Each subject, regardless of dose cohort, received the dose in 8 ounces of water, which was to be consumed within a 10-minute period. Dose cohorts proceeded in a dose-escalating fashion starting with the lowest dose (24 g/24 g) and escalated according to a dose escalation decision tree.
The physician performing the colonoscopy utilized Applicant's GPA scale to evaluate the quality of bowel preparation as before suctioning and washing.
The Residual Stool Score (RSS) described above was also used to assess bowel cleansing in each of the 5 segments of the bowel (rectum, descending colon, transverse colon, ascending colon, and cecum). As noted, assessments included the amount of stool present, the consistency of the stool, and the estimated percentage of the bowel wall visualized in each segment.
For reasons of inadequate bowel preparation, sections of the bowel that were not directly examined during colonoscopy were rated as “poor” on all three measures listed previously.
A total of 24 subjects were enrolled into each of the three dose cohorts. All 72 subjects were included in the intent-to-treat (ITT) and safety populations.

For series [6] the following is noted: cited from earlier work.
The subject of series [7] is colon. Conditions: 24-g single dose; Raymer scale; cited from earlier work.
The conditions of series [8]: cited from earlier work. The source holds these as a separate data set.
[9] abbreviates: 48 g/48 g dose compared with lower split doses.

Consider `O.O=C[C@@H](O)[C@H](O)[C@@H](O)[C@@H](O)CO` [L-glucose monohydrate], for which the “Observations: clusters or clumping of solid” value in series [1] (5 min. delay) and in series [1] (No delay) was “Several clusters of solid at 1 min. Final solution” throughout. Besides, the “Time of stirring until sample fully dissolved” value in series [1] (5 min. delay before stirring, listed as L- glucose monohydrate^1, monohydrate) is “Sample fully dissolved after 2.5 min. of stirring”; in series [1] (5 min. delay before stirring, listed as L- glucose monohydrate^2, monohydrate), “Fully dissolved after 1 min. of stirring. Final”; in series [1] (No delay (stirred immediately), listed as L- glucose monohydrate^1, monohydrate), “Sample fully dissolved after 2.5 min. of stirring”; in series [1] (No delay (stirred immediately), listed as L- glucose monohydrate^2, monohydrate), “Fully dissolved after 2 min. of stirring. Final”. For the same molecule, the “Observations: appearance of final solution” value in series [1] (5 min. delay, listed as L- glucose monohydrate^2, monohydrate) was “solution was clear, colorless and homogeneous”; in series [1] (No delay, listed as L- glucose monohydrate^2, monohydrate) it was “solution was clear, colorless and homogeneous”.
Take `O=C[C@@H](O)[C@H](O)[C@@H](O)[C@@H](O)CO` [L-glucose]: in the series on colon [2], the Failure rating is given as 20%. Besides, in the series on colon [3], the “Acceptability as a colonic cleanser” value is listed as “not acceptable”. Besides, in the series with colon [4] (24 g and 30 g evening only), the “Outcome of the evening-only dose arms” value is on record as “suspended for lack of effectiveness”. For the same molecule, in the series on colon [4] (in vivo), the “Changes in laboratory test results” value was “no clinically significant changes”, the “Commonly reported adverse events” value is on record as “generally absent or mild” and the “Overall tolerance to the bowel preparation” value is listed as “good or very good”. In the series with colon [5] (24 g/24 g cohort), the “Subjects with GPA rated Excellent (clean colon or small volume of clear liquid)” value (from here on “Subjects with GPA rated Excellent”) was 12 (50.0%) subjects (%) and 12 (50.0) subjects (%); the “Subjects with GPA rated Fair (some semisolid stool suctioned or washed away)” value (shortened to “Subjects with GPA rated Fair”) is recorded as 5 (20.8) subjects (%); the “Subjects with GPA rated Good (moderate to large volume of clear to semiclear liquid)” value (“Subjects with GPA rated Good” for short) is 7 (29.2) subjects (%); the “Subjects with GPA rated Poor (semisolid or solid stool unable to be suctioned or washed away)” value is given as 0 (0.0) subjects (%). Also, in the series with colon [5] (36 g/36 g cohort), the “Subjects with GPA rated Excellent” value was 14 (58.3%) subjects (%) and 14 (58.3) subjects (%); the “Subjects with GPA rated Fair” value is reported as 2 (8.3) subjects (%); the “Subjects with GPA rated Good” value is on record as 7 (29.2) subjects (%); the “Subjects with GPA rated Poor (semisolid or solid stool unable to be suctioned or washed away)” value is 1 (4.2%) subjects (%) and 1 (4.2) subjects (%). Moreover, in the series with colon [5] (48 g/48 g cohort), the “Subjects with GPA rated Excellent” value was 22 (91.7%) subjects (%) and 22 (91.7) subjects (%); the “Subjects with GPA rated Fair” value is 1 (4.2) subjects (%); the “Subjects with GPA rated Good” value is given as 1 (4.2) subjects (%); the “Subjects with GPA rated Poor (semisolid or solid stool unable to be suctioned or washed away)” value is given as 0 (0.0) subjects (%). Further, in the series on colon [5] (setting [9]), the “Robustness of bowel cleansing” value is listed as “more robust bowel cleansing” and the “Time to the first watery bowel movement” value is given as “shortest time to the first watery bowel movement”. In the series on colon [5] (Site 01, all dose cohorts), the “Subjects who had a complete colonoscopy” value is on record as 30 (96.8%) subjects (%) and the “Subjects with GPA rated poor” value is on record as 1 (3.2%) subjects (%). Besides, the “Subjects who had a complete colonoscopy” value in the series on colon [5] (Site 02, all dose cohorts) is on record as 39 (95.1%) subjects (%). In the series on colon [5] (Total of all cohorts), the “Subjects with GPA rated Excellent” value was 48 (66.7) subjects (%), the “Subjects with GPA rated Fair” value was 8 (11.1) subjects (%), the “Subjects with GPA rated Good” value is 15 (20.8) subjects (%) and the “Subjects with GPA rated Poor (semisolid or solid stool unable to be suctioned or washed away)” value is 1 (1.4) subjects (%). The “Subjects who had a complete colonoscopy (endoscopist able to reach the cecum)” value in the series on colon [5] (in each dose cohort (24 g/24 g, 36 g/36 g, 48 g/48 g)) is listed as 23 (95.8%) subjects (%). In addition, the “Effect of food restriction on the metabolism of L-glucose” value in series [6] (in vivo) was “no significant effect”. For the same molecule, the “Major route of L-glucose elimination” value in series [6] (mice, rats, dogs, rabbits, and monkeys) was “urinary excretion”. Besides, the “Subjects with colonoscopy preparation grade of excellent or good” value in the series with colon [7] is on record as 80%. Moreover, in series [8], the “Absorption from the human intestine” value was “moderately absorbed”. Also, in series [8] (human), the “Glucose or insulin response after administration” value is on record as “No significant glucose or insulin response”; the “Lower gastrointestinal symptoms (cramping, gas/flatus), mild” value was “occurred in a majority of subjects”; the “Metabolism by colonic bacteria (breath hydrogen, comparable with in vitro studies)” value is recorded as “colonic bacteria do not metabolize”; the “Mild upper gastrointestinal symptoms (vomiting, nausea, belching/rifting, bloating)” value is “occurred in a minority of subjects”.
For the molecule `OC[C@@H]1OC(O)[C@@H](O)[C@H](O)[C@H]1O` (stereo partly drawn) [anhydrous L-glucose, reference compound], the “Observations: clusters or clumping of solid” value in series [1] (5 min. delay) is recorded as “Material clumped into a hard mass during time”. Also, the “Observations: appearance of final solution” value in series [1] (No delay) is listed as “stirring. Clear solution results with latent”.

(Values after patent publication US8618067B2, “L-sugar colon cleansing agent and uses thereof” (Aptalis Pharma US, Inc., priority 2009, dated 2013).)
